# From patent US10000473B2, “Indazole derivatives useful as glucagon receptor antagonists” (Janssen Pharmaceutica NV, priority 2016, dated 2018)
# “And” between values parts separate entries of the source, which are not always exact repeats. Equal values may be shown once.
# Key:
# human GCGR = target: T1, human GCGR (Homo sapiens, UniProt P47871); assay: Cellular functional assay, cAMP readout (glucagon-stimulated cAMP, LANCE TR-FRET); assay type: cell-based; details: HEK293 cells stably expressing full-length human GCGR; glucagon 100 pM; IC50 converted to Ki; read-out: Inhibition of cAMP Ki
# T1 construct: expressed in transfected cells; host or cells: HEK293 (hGluc-1HEK), pcDNA3.1, G418 selection
# [1] = test system: GCG-mediated increases in blood glucose; assay: Glucagon challenge in vivo assay measuring blood glucose (normal dog glucagon challenge test); details: fasted male beagle dogs; for inhibition of GCG-mediated increases in blood glucose vs vehicle: glucagon 5 μg/kg intramuscular 90 min after dosing
# Experimental: Glucagon Challenge In Vivo Assay Measuring Blood Glucose
# The efficacy of a glucagon receptor antagonist was evaluated using a normal dog glucagon challenge test. Male beagle dogs were overnight fasted prior to the study. Test compound (at 3 mg/kg and 10 mg/kg for Compound #196 and at 10 mg/kg for Compounds #180, #248 and #253) or vehicle (0.5% hydroxypropyl methylcellulose) was dosed via oral gavage. Ninety minutes later, the dogs (1.5 years old, ˜9 Kg) were submitted to a glucagon challenge test by a single intramuscular injection of glucagon (Glucagon, rDNA origin, Eli Lilly, Indianapolis, Ind.) at dose of 5 μg/kg. Blood glucose levels were determined at times −10 min, 0 min (on challenge), 10 min, 20 min, 30 min, and 60 min after glucagon injection.
# [2] = 10 mg/kg oral gavage, glucagon 5 μg/kg intramuscular
# T1 sequence (P47871 26-477): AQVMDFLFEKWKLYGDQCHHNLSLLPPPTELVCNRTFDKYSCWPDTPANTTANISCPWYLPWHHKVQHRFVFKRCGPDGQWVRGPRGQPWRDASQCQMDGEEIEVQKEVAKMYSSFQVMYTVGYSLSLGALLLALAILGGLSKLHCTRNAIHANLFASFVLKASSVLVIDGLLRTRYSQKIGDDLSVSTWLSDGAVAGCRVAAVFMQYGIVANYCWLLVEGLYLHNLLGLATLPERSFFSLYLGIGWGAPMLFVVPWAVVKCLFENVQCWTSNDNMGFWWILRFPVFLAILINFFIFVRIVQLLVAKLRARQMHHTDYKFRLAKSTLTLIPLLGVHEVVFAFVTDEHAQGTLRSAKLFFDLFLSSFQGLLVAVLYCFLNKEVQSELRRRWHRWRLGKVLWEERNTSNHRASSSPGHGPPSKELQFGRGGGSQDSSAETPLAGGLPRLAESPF
Ki (human GCGR),Structure (SMILES),"blood glucose levels during glucagon challenge compared with vehicle treated group [1, 2]","duration of blood glucose reducing effect after glucagon injection [1, 2]",inhibition of GCG-mediated increases in blood glucose vs vehicle ([1]; 10 mg/kg oral gavage),inhibition of GCG-mediated increases in blood glucose vs vehicle ([1]; 3 mg/kg oral gavage)
25 nM (2×) and 20 nM,"Cc1c(-c2ccc(C(F)(F)F)cc2Cl)ccc2nn([C@@H](CC(C)C)c3ccc(C(=O)NCCC(=O)O)cc3)cc12 [Compound #180, 3-[[4-[(1S)-1-[5-[2-Chloro-4-(trifluoromethyl)phenyl]-4-methyl-indazol-2-yl]-3-methyl-butyl]benzoyl]amino]propanoic acid]",markedly reduced blood glucose levels,more than 60 min,28.9%,–
14 nM,"Cc1cc(C(F)(F)F)ccc1-c1cc2cnn([C@@H](CC(C)C)c3ccc(C(=O)NCCC(=O)O)cc3)c2cc1C [Compound #253, 3-[[4-[(1S)-3-Methyl-1-[6-methyl-5-[2-methyl-4-(trifluoromethyl)phenyl]indazol-1-yl]butyl]benzoyl]amino]propanoic acid]",–,–,17.1%,–
26 nM,Cc1cc(Cl)ccc1-c1ccc2nn(C(CC(C)(C)C)c3ccc(C(=O)NCCC(=O)O)nc3)cc2c1 (stereo not drawn) [compound 257],–,–,–,–

Structure (SMILES),Ki (human GCGR),"blood glucose levels during glucagon challenge compared with vehicle treated group [1, 2]","duration of blood glucose reducing effect after glucagon injection [1, 2]",inhibition of GCG-mediated increases in blood glucose vs vehicle ([1]; 10 mg/kg oral gavage),inhibition of GCG-mediated increases in blood glucose vs vehicle ([1]; 3 mg/kg oral gavage)
"Cc1cc2c(cnn2[C@@H](CC(C)C)c2ccc(C(=O)NCCC(=O)O)cc2)cc1-c1ccc(C(F)(F)F)cc1Cl [Compound #196, 3-[[4-[(1S)-1-[5-[2-Chloro-4-(trifluoromethyl)phenyl]-6-methyl-indazol-1-yl]-3-methyl-butyl]benzoyl]amino]propanoic acid]",32 nM,–,–,23.9%,5.9%
"Cc1cc(C(F)(F)F)ccc1-c1cc2cn([C@@H](CC(C)C)c3ccc(C(=O)NCCC(=O)O)cc3)nc2cc1C [Compound #248, 3-[[4-[(1 S)-3-Methyl-1-[6-methyl-5-[2-methyl-4-(trifluoromethyl)phenyl]indazol-2-yl]butyl]benzoyl]amino]propanoic acid]",25 nM,–,–,15%,–
